In brackets after ≈: the same amount, converted by molar mass. Read-outs that look alike come from different tables or passages of the source. Blank lines part the entries; values can stand above or below the compound they belong to.
Key:
KRAS G12V-cRAF = KRAS G12V-cRAF (Homo sapiens, UniProt P01116+P62937, G12V); test: Assay for binding of KRAS to cRAF (HTRF, with Cyclophilin A), KRAS G12V
Experimental: (§3) The plate was centrifuged at 1000 rpm for 1 min and then incubated in the thermostatic incubator at 20 °C for 30 min. […] The plate was centrifuged at 1000 rpm for 1 min and then incubated in the thermostatic incubator at 20 °C for 60 min. […] The working solution was added to the aforementioned assay plate at 5 µL/well. The plate was centrifuged at 1000 rpm for 1 min and then incubated in the thermostatic incubator at 20 °C for 60 min.

AsPC-1 cells = test: 3D cell proliferation assay (CellTiter Glo-3D), AsPC-1; type: cell-based, human; details: AsPC-1 cells (KRAS G12D), 3D, 2% FBS, 5 days, read-out: AsPC-1 AP IC50
Outline: (§1)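 Cells seeded at 800 per well (AsPC-1, NCI-H441) in 2% FBS medium and incubated overnight at 37 °C, 5% CO2. Compounds added next day from 10× stock, then 5 days' further culture. Viability read by CellTiter-Glo luminescence; IC50 from four-parameter fit of inhibition versus log concentration.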

[1] = Human liver microsomal stability experiment; type: in vitro ADME; details: human liver microsomes; for half-life at 1 µM / half-life / T1/2: NADPH, 37 °C; for CLint scaled: 45 mg/g, 20.7 g/kg scaling
Experimental: This experiment was intended to investigate the metabolic stability of the test compounds in human liver microsomes. The materials used in the experiment included 10 mM solutions of the test compounds and the control sample, human liver microsomes, and reduced nicotinamide adenine dinucleotide phosphate (NADPH) powder. In the experiment, a 100 mM potassium phosphate buffer was used as the buffer system.
The liver microsome working solution was prepared by diluting the liver microsome stock solution to 0.75 mg/mL using the 100 mM potassium phosphate buffer. Then, 5 µL of the 10 mM stock solution of the test compound was taken, and 195 µL of methanol was added. The mixture was well mixed to prepare a working solution A with a concentration of 0.25 mM. Subsequently, the working solution A was diluted to 1.5 µM using the liver microsome working solution to prepare a compound-liver microsome mixed solution. Additionally, NADPH powder was dissolved in 100 mM potassium phosphate buffer to prepare a 6 mM NADPH solution. The compound-liver microsome mixed solution was dispensed into a 96-well plate at 30 µL/well, with labeled time points of 0 min, 30 min, and 60 min. For 0-min samples, 180 µL of acetonitrile containing 100 ng/mL tolbutamide and 15 µL of the NADPH solution were added directly. The 96-well plate and the NADPH solution were then preheated under a 37 °C water bath for 5 min. After the preheating, 15 µL of the NADPH solution was added to each of the 30-min and 60-min sample wells. The plate was gently shaken for mixing and then incubated under the 37 °C water bath for the corresponding time. After the incubation was completed, 180 µL of acetonitrile containing 100 ng/mL tolbutamide was added to each sample well. The plate was sealed with a sealing film, shaken for 10 min (800 rpm/min), and then centrifuged for 15 min (4000 rpm). After the centrifugation, 50 µL of the supernatant was taken and added to a 96-well plate containing 150 µL of deionized water, and then the plate was sealed and shaken for 10 min (800 rpm) for uniform mixing. Subsequently, sample analysis was performed using liquid chromatography-tandem mass spectrometry (LC-MS/MS). […] For humans, the microsome protein-to-liver weight ratio was 45 mg/g, and the liver-to-body weight ratio was 20.7 g/kg.

H441 p-ERK = test: Cell p-ERK assay (HTRF), NCI-H441 cells; type: cell-based, human; details: NCI-H441 cells (KRAS G12V), 3 h incubation
Outline: (§2)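 AsPC-1 (10000/well) or NCI-H441 (20000/well) cells were seeded overnight and then exposed to compound for 3 h at 37 °C. Lysates were probed for ERK phospho-T202/Y204 by HTRF with a 4-hour antibody incubation. IC50 values came from four-parameter fits of inhibition against log concentration.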

NCI-H441 cells = test: 3D cell proliferation assay (CellTiter Glo-3D), NCI-H441; type: cell-based, human; details: NCI-H441 cells (KRAS G12V), 2% FBS, 5 days, read-out: H441 AP IC50
Outline: as §1

KRAS WT-cRAF = KRAS WT-cRAF (Homo sapiens, UniProt P01116+P62937); test: Assay for binding of KRAS to cRAF (HTRF, with Cyclophilin A), KRAS WT
Experimental: as §3

AsPC-1 p-ERK = test: Cell p-ERK assay (HTRF), AsPC-1 cells; type: cell-based, human; details: AsPC-1 cells (KRAS G12D), 3 h incubation, read-out: AsPC-1 p-ERK IC50
Outline: as §2

[2] = Solubility experiment (HPLC, external standard); type: physicochemical; details: 37 °C, 24 h
Outline: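 Solid compound (about 1 mg per 1 mL medium) was shaken at 37 °C for 24 h in pH 1.2, 4.5 or 7.4 media, then centrifuged and the supernatant diluted with acetonitrile/water 50/50. Concentration in μg/mL was found by HPLC against an external standard prepared from a DMSO stock.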

[3] = KRAS G12V-cRAF binding assay(nM), GPPNP-KRAS G12V, IC50 values
[4] = KRAS WT-cRAF binding assay(nM), GPPNP-KRAS WT, IC50 values
[5] = read-out: KRAS G12V-cRAF binding assay, GPPNP-KRAS G12V, IC50 values
[6] = read-out: KRAS WT-cRAF binding assay, GPPNP-KRAS WT, IC50 values

KRAS WT-cRAF, sequence (P01116 1-188 isoform P01116-2): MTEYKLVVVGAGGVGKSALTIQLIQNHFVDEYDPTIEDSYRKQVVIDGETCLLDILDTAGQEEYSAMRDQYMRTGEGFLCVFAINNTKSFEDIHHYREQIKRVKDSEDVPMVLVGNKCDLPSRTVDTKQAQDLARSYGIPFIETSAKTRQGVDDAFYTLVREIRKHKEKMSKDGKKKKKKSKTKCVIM
KRAS WT-cRAF, sequence (P62937 whole entry): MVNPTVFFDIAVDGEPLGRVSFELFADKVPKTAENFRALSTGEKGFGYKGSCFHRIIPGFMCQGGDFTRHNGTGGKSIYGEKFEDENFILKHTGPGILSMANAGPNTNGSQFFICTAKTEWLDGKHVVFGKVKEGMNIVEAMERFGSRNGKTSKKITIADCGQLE
KRAS G12V-cRAF, sequence (P01116 1-188 isoform P01116-2 G12V): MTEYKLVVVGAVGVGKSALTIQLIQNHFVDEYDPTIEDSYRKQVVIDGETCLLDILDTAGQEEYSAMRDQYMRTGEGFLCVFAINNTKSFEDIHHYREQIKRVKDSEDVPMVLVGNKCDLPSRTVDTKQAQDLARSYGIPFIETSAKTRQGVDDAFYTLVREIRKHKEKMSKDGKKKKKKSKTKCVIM
KRAS G12V-cRAF, sequence (P62937 whole entry): as the sequence (P62937 whole entry) above

SMILES: CCn1c(-c2cc(C#CCN3CCC(O)CC3)cnc2C(C)OC)c2c3cc(ccc31)-c1csc(n1)CC(NC(=O)C1C(C)C1C)C(=O)N1CCCC(N1)C(=O)OCC(C)(C)C2 (atropisomer, axis not shown; (Ra)) [Compound Z11, (1r,2R,3S)-N-((6^3S,4S,Z)-1^1-ethyl-(Ra)-1^2-(5-(3-(4-hydroxypiperidin-1-yl)prop-1-yn-1-yl)-2-((S)-1-methoxyethyl)pyridin-3-yl)-10,10-dimethyl-5,7-dioxo-6^1,6^2,6^3,6^4,6^5,6^6-hexahydro-1^1H-8-oxa-2(4,2)-thiazola-1(5,3)-indola-6(1,3)-pyridazinacycloundecaphane-4-yl)-2,3-dimethylcyclopropane-1-carboxamide]
- IC50 (KRAS G12V-cRAF; [3]): 12.3 nM
- IC50 (AsPC-1 cells; Homo sapiens, ASPC1, 120 h): 0.15 nM
- half-life at 1 µM [1]: 30.3 min
- CLint scaled [1]: 52.9 mL/min/kg
- IC50 (H441 p-ERK; Homo sapiens): 0.21 nM
- IC50 (NCI-H441 cells; Homo sapiens, 120 h): 0.1 nM
- IC50 (KRAS WT-cRAF; [4]): 27.7 nM
- IC50 (AsPC-1 p-ERK; Homo sapiens, ASPC1): 0.11 nM

SMILES: CCn1c(-c2cc(C#CCN3CCC(C#N)(CN)CC3)cnc2[C@H](C)OC)c2c3cc(ccc31)-c1csc(n1)C[C@H](NC(=O)[C@H]1[C@H](C)[C@@H]1C)C(=O)N1CCC[C@H](N1)C(=O)OCC(C)(C)C2 (atropisomer, axis not shown; (Ra)) [Compound Z181, (1r,2R,3S)-N-((6^3S,4S,Z)-1^2-(Ra)-(5-(3-(4-(aminomethyl)-4-cyanopiperidin-1-yl)prop-1-yn-1-yl)-2-((S)-1-methoxyethyl)pyridin-3-yl)-1^1-ethyl-10,10-dimethyl-5,7-dioxo-6^1,6^2,6^3,6^4,6^5,6^6-hexahydro-1^1H-8-oxa-2(4,2)-thiazola-1(5,3)-indola-6(1,3)-pyridazinacycloundecaphan-4-yl)-2,3-dimethylcyclopropane-1-carboxamide]
- IC50 (KRAS G12V-cRAF; [5]): 13.1 nM
- half-life [1]: 43.4 min
- CLint scaled [1]: 36.9 mL/min/kg
- IC50 (KRAS WT-cRAF; [6]): 36.4 nM

SMILES: CCn1c(-c2cc(C#CCN3CCN(C(C)=O)CC3)cnc2[C@H](C)OC)c2c3cc(ccc31)-c1csc(n1)C[C@H](NC(=O)[C@H]1[C@H](C)[C@@H]1C)C(=O)N1CCC[C@H](N1)C(=O)OCC(C)(C)C2 (atropisomer, axis not shown) [Control compound 2]
- IC50 (KRAS G12V-cRAF; [5]): 10.9 nM
- solubility at 24 h ([2]; ph 7.4 medium, pH 7.4, pH 7.4 medium): 1.5 µg/mL (≈ 1.68 µM)
- half-life [1]: 9.8 min
- CLint scaled [1]: 164 mL/min/kg
- IC50 (KRAS WT-cRAF; [6]): 48.6 nM

SMILES: CCn1c(-c2cc(C#CCN3CCC(C#N)(CN)CC3)cnc2[C@H](C)OC)c2c3cc(ccc31)-c1coc(n1)C[C@H](NC(=O)[C@H]1[C@H](C)[C@@H]1C)C(=O)N1CCC[C@H](N1)C(=O)OCC(C)(C)C2 (atropisomer, axis not shown; (Ra)) [Compound Z182]
- IC50 (KRAS G12V-cRAF; [5]): 13 nM
- half-life [1]: 16.4 min
- CLint scaled [1]: 97.9 mL/min/kg
- IC50 (KRAS WT-cRAF; [6]): 34.5 nM

SMILES: CCn1c(-c2cc(C#CCN3CCC(C#N)(CN)CC3)cnc2[C@H](C)OC)c2c3cc(ccc31)-c1coc(n1)C[C@H](NC(=O)[C@H]1[C@@H]3COC[C@@H]31)C(=O)N1CCC[C@H](N1)C(=O)OCC(C)(C)C2 (atropisomer, axis not shown; (Ra)) [Compound Z166, (1R,5S,6r)-N-((6^3S,4S,Z)-(Ra)-1^2-(5-(3-(4-(aminomethyl)-4-cyanopiperidin-1-yl)prop-1-yn-1-yl)-2-((S)-1-methoxyethyl)pyridin-3-yl)-1^1-ethyl-10,10-dimethyl-5,7-dioxo-6^1,6^2,6^3,6^4,6^5,6^6-hexahydro-1^1H-8-oxa-2(4,2)-oxazola-1(5,3)-indola-6(1,3)-pyridazinacycloundecaphane-4-yl)-3-oxabicyclo[3.1.0]hexane-6-carboxamide]
- IC50 (KRAS G12V-cRAF; [5]): 12.9 nM
- Solubility at pH 7.4 (µg/mL) ([2]; pH 7.4 medium): 26.76 µg/mL
- IC50 (AsPC-1 cells): 0.12 nM
- T1/2 [1]: 19.6 min
- IC50 (H441 p-ERK): 0.2 nM
- IC50 (NCI-H441 cells): 0.37 nM
- IC50 (KRAS WT-cRAF; [6]): 38.9 nM
- IC50 (AsPC-1 p-ERK): 0.1 nM

Second part, the compound after the results:

- IC50 (KRAS G12V-cRAF; [3]): 11.9 nM
- IC50 (AsPC-1 cells; Homo sapiens, ASPC1, 120 h): 0.09 nM
- half-life at 1 µM [1]: 23.3 min
- CLint scaled [1]: 68.9 mL/min/kg
- IC50 (H441 p-ERK; Homo sapiens): 0.12 nM
- IC50 (NCI-H441 cells; Homo sapiens, 120 h): 0.14 nM
- IC50 (KRAS WT-cRAF; [4]): 13.9 nM
- IC50 (AsPC-1 p-ERK; Homo sapiens, ASPC1): 0.07 nM
SMILES: CCn1c(-c2cc(C#CCN3CCC(C#N)CC3)cnc2C(C)OC)c2c3cc(ccc31)-c1csc(n1)CC(NC(=O)C1C3COCC31)C(=O)N1CCCC(N1)C(=O)OCC(C)(C)C2 (atropisomer, axis not shown; (Ra)) [Compound Z56, (1R,5S,6r)-N-((6^3S,4S,Z)-(Ra)-1^2-(5-(3-(4-cyanopiperidin-1-yl)prop-1-yn-1-yl)-2-((S)-1-methoxyethyl)-pyridin-3-yl)-1^1-ethyl-10,10-dimethyl-5,7-dioxo-6^1,6^2,6^3,6^4,6^5,6^6-hexahydro-1^1H-8-oxa-2(4,2)-thiazola-1(5,3)-indola-6(1,3)-pyridazinacycloundecaphane-4-yl)-3-oxabicyclo[3.1.0]hexane-6-carboxamide]

- IC50 (KRAS G12V-cRAF; [5]): 13.3 nM
- IC50 (AsPC-1 cells): 0.08 nM
- T1/2 [1]: 47.3 min
- IC50 (H441 p-ERK): 0.13 nM
- IC50 (NCI-H441 cells): 0.17 nM
- IC50 (KRAS WT-cRAF; [6]): 16.5 nM
- IC50 (AsPC-1 p-ERK): 0.06 nM
SMILES: CCn1c(-c2cc(C#CCN3CCC(C#N)(CN)CC3)cnc2[C@H](C)OC)c2c3cc(ccc31)-c1csc(n1)C[C@H](NC(=O)[C@H]1[C@@H]3COC[C@@H]31)C(=O)N1CCC[C@H](N1)C(=O)OCC(C)(C)C2 (atropisomer, axis not shown; (Ra)) [Compound Z52, (1R,5S,6r)-N-((6^3S,4S,Z)-(Ra)-1^2-(5-(3-(4-(aminomethyl)-4-cyanopiperidin-1-yl)prop-1-yn-1-yl)-2-((S)-1-methoxyethyl)-pyridin-3-yl)-1^1-ethyl-10,10-dimethyl-5,7-dioxo-6^1,6^2,6^3,6^4,6^5,6^6-hexahydro-1^1H-8-oxa-2(4,2)-thiazola-1(5,3)-indola-6(1,3)-pyridazinacycloundecaphane-4-yl)-3-oxabicyclo[3.1.0]hexane-6-carboxamide]

- IC50 (KRAS G12V-cRAF; [5]): 5.48 nM
- half-life [1]: 18.1 min
- CLint scaled [1]: 88.5 mL/min/kg
- IC50 (KRAS WT-cRAF; [6]): 14.8 nM
SMILES: CCn1c(-c2cc(C#CCN3CCC(C#N)CC3)cnc2[C@H](C)OC)c2c3cc(ccc31)-c1csc(n1)C[C@H](NC(=O)[C@H]1[C@H](C)[C@@H]1C)C(=O)N1CCC[C@H](N1)C(=O)OCC(C)(C)C2 (atropisomer, axis not shown; (Ra)) [Compound Z282, (1r,2R,3S)-N-((6^3S,4S,Z)-1^2-(5-(3-(4-cyanopiperidin-1-yl)prop-1-yn-1-yl)-(Ra)-2-((S)-1-methoxyethyl)pyridin-3-yl)-1^1-ethyl-10,10-dimethyl-5,7-dioxo-6^1,6^2,6^3,6^4,6^5,6^6-hexahydro-1^1H-8-oxa-2(4,2)-thiazola-1(5,3)-indola-6(1,3)-pyridazinacycloundecaphan-4-yl)-2,3-dimethylcyclopropane-1-carboxamide]
